System: PC3 cells
Experiment: NAMPT Cell Proliferation Assay (Cell Titer Glo; also performed in the presence of 0.3 mM nicotinamide mononucleotide)
Type: cell-based
Conditions: Homo sapiens, PC-3, 120 h, 5 days incubation, cell viability by Cell Titer Glo
Protocol: NAMPT Cell Proliferation Assay
PC3 cells were seeded in 96-well black plates (Corning #3904) at 500 cells/well in 90 μl of RPMI media containing 10% heat-inactivated FBS and incubated overnight at 37° C. and 5% CO2 to allow cells to attach to wells. The following day, test compounds were serially diluted in neat DMSO to 1000× final concentrations prior to dilution with RPMI media to 10× and 1% DMSO. Ten μL of the 10× compounds were then transferred to wells containing cells to produce a dose response of 10-fold dilutions from 10 μM to 1×10^−5 μM. Cells were incubated for 5 days at 37° C. and 5% CO2, then cell viability was measured using Cell Titer Glo reagent (Promega #G7571). Percent inhibition values were calculated and fitted to a sigmoidal dose response curves using Assay Explorer software to determine IC50s.

SMILES	IC50
O=C(N[C@H]1CCN(c2cccnn2)C1)c1ccc(C2CCN(C(=O)CC3CC3)CC2)s1 [Example 1018, 5-[1-(cyclopropylacetyl)piperidin-4-yl]-N-[(3S)-1-(pyridazin-3-yl)pyrrolidin-3-yl]thiophene-2-carboxamide]	716 nM
CCCCNC(=O)c1ccc(NC(=O)C2CN(c3cccnn3)C2)cc1 [Example 979, N-[4-(butylcarbamoyl)phenyl]-1-(pyridazin-3-yl)azetidine-3-carboxamide]	72 nM
O=C(Nc1ccc(-c2cc(C(F)(F)F)nn2-c2ccccc2)cc1)C1CN(c2cccnn2)C1 [Example 923, N-{4-[1-phenyl-3-(trifluoromethyl)-1H-pyrazol-5-yl]phenyl}-1-(pyridazin-3-yl)azetidine-3-carboxamide]	69.4 nM
O=C(NC1(C2CC2)CC1)c1ccc(NC(=O)C2CN(c3cccnn3)C2)cc1 [Example 983, N-{4-[1,1′-bi(cyclopropyl)-1-ylcarbamoyl]phenyl}-1-(pyridazin-3-yl)azetidine-3-carboxamide]	604 nM
CSCC(=O)N1CCC(Cc2ccc(NC(=O)C3CN(c4cccnn4)C3)cc2)CC1 [Example 932, N-[4-({1-[(methylsulfanyl)acetyl]piperidin-4-yl}methyl)phenyl]-1-(pyridazin-3-yl)azetidine-3-carboxamide]	5.82 nM
C[C@H](NC(=O)c1ccc(NC(=O)C2CN(c3cccnn3)C2)cc1)C1CC1 [Example 981, N-(4-{[(1S)-1-cyclopropylethyl]carbamoyl}phenyl)-1-(pyridazin-3-yl)azetidine-3-carboxamide]	1060 nM
CC(C)CC(=O)N1CCC(c2ccc(NC(=O)C3CN(c4cccnn4)C3)cc2F)CC1 [Example 887, N-{3-fluoro-4-[1-(3-methylbutanoyl)piperidin-4-yl]phenyl}-1-(pyridazin-3-yl)azetidine-3-carboxamide]	8.47 nM
Cc1ccnnc1N1CC(C(=O)Nc2ccc(C3CCN(C(=O)CC(C)(C)C)CC3)cc2)C1 [Example 969, N-{4-[1-(3,3-dimethylbutanoyl)piperidin-4-yl]phenyl}-1-(4-methylpyridazin-3-yl)azetidine-3-carboxamide]	0.347 nM
C=CCNC(=O)c1ccc(NC(=O)C2CN(c3cccnn3)C2)cc1 [Example 1012, N-[4-(prop-2-en-1-ylcarbamoyl)phenyl]-1-(pyridazin-3-yl)azetidine-3-carboxamide]	782 nM
CN1CCCC(CNC(=O)c2ccc(NC(=O)C3CN(c4cccnn4)C3)cc2)C1 (stereo not drawn) [Example 1003, N-(4-{[(1-methylpiperidin-3-yl)methyl]carbamoyl}phenyl)-1-(pyridazin-3-yl)azetidine-3-carboxamide]	1070 nM
CCC1CCCCN1CCNC(=O)c1ccc(NC(=O)C2CN(c3cccnn3)C2)cc1 (stereo not drawn) [Example 976, N-(4-{[2-(2-ethylpiperidin-1-yl)ethyl]carbamoyl}phenyl)-1-(pyridazin-3-yl)azetidine-3-carboxamide]	61.2 nM
CC(C)(C)C(=O)N1CCC(c2ccc(C(=O)N[C@H]3CCN(c4cccnn4)C3)s2)CC1 [Example 1013, 5-[1-(2,2-dimethylpropanoyl)piperidin-4-yl]-N-[(3S)-1-(pyridazin-3-yl)pyrrolidin-3-yl]thiophene-2-carboxamide]	213 nM
CC1CC1NC(=O)c1ccc(NC(=O)C2CN(c3cccnn3)C2)cc1 (stereo not drawn) [Example 991, N-{4-[(2-methylcyclopropyl)carbamoyl]phenyl}-1-(pyridazin-3-yl)azetidine-3-carboxamide]	760 nM
CCC(C)C(=O)N1CCC(Cc2ccc(NC(=O)C3CN(c4cccnn4)C3)cc2)CC1 (stereo not drawn) [Example 957, N-(4-{[1-(2-methylbutanoyl)piperidin-4-yl]methyl}phenyl)-1-(pyridazin-3-yl)azetidine-3-carboxamide]	1.93 nM
O=C(Nc1ccc(C2CCN(C(=O)CC(F)(F)F)CC2)c(F)c1)C1CN(c2cccnn2)C1 [Example 881, N-{3-fluoro-4-[1-(3,3,3-trifluoropropanoyl)piperidin-4-yl]phenyl}-1-(pyridazin-3-yl)azetidine-3-carboxamide]	8.18 nM
CN1CCC(NC(=O)c2ccc(NC(=O)C3CN(c4cccnn4)C3)cc2)CC1 [Example 986, N-{4-[(1-methylpiperidin-4-yl)carbamoyl]phenyl}-1-(pyridazin-3-yl)azetidine-3-carboxamide]	7470 nM
O=C(N[C@H]1CCN(c2cccnn2)C1)c1ccc(C2CCN(C(=O)c3ccccc3F)CC2)o1 [Example 907, 5-[1-(2-fluorobenzoyl)piperidin-4-yl]-N-[(3S)-1-(pyridazin-3-yl)pyrrolidin-3-yl]furan-2-carboxamide]	6750 nM
Cc1ccc(N2CC(C(=O)Nc3ccc(O[C@@H]4CCN(C(=O)CC(C)C)C4)cc3)C2)nn1 [Example 915, N-(4-{[(3R)-1-(3-methylbutanoyl)pyrrolidin-3-yl]oxy}phenyl)-1-(6-methylpyridazin-3-yl)azetidine-3-carboxamide]	139 nM
O=C(NCC1CCC1)c1ccc(NC(=O)C2CN(c3cccnn3)C2)cc1 [Example 977, N-{4-[(cyclobutylmethyl)carbamoyl]phenyl}-1-(pyridazin-3-yl)azetidine-3-carboxamide]	12.4 nM
O=C(NCc1ccccc1)c1ccc(NC(=O)C2CN(c3cccnn3)C2)cc1 [Example 1006, N-[4-(benzylcarbamoyl)phenyl]-1-(pyridazin-3-yl)azetidine-3-carboxamide]	5.36 nM
COCC(=O)N1CCC(Cc2ccc(NC(=O)C3CN(c4cccnn4)C3)cc2)CC1 [Example 943, N-(4-{[1-(methoxyacetyl)piperidin-4-yl]methyl}phenyl)-1-(pyridazin-3-yl)azetidine-3-carboxamide]	7.6 nM
CCC(C)(C)C(=O)N1CCC(Cc2ccc(NC(=O)C3CN(c4cccnn4)C3)cc2)CC1 [Example 930, N-(4-{[1-(2,2-dimethylbutanoyl)piperidin-4-yl]methyl}phenyl)-1-(pyridazin-3-yl)azetidine-3-carboxamide]	2.7 nM
O=C(Nc1ccc(CC2CCN(C(=O)c3cn[nH]c3)CC2)cc1)C1CN(c2cccnn2)C1 [Example 929, N-(4-{[1-(1H-pyrazol-4-ylcarbonyl)piperidin-4-yl]methyl}phenyl)-1-(pyridazin-3-yl)azetidine-3-carboxamide]	27.1 nM
CC(C)(C)C(=O)N1CCC(O)(c2ccc(NC(=O)C3CN(c4cccnn4)C3)cc2)CC1 [Example 890, N-{4-[1-(2,2-dimethylpropanoyl)-4-hydroxypiperidin-4-yl]phenyl}-1-(pyridazin-3-yl)azetidine-3-carboxamide]	4.09 nM
CC(C)CC(=O)N1CCC(Cc2ccc(NC(=O)C3CN(c4cccnn4)C3)cc2)CC1 [Example 966, N-(4-{[1-(3-methylbutanoyl)piperidin-4-yl]methyl}phenyl)-1-(pyridazin-3-yl)azetidine-3-carboxamide]	3.23 nM
CC[C@H](C)NC(=O)c1ccc(NC(=O)C2CN(c3cccnn3)C2)cc1 [Example 978, N-{4-[(2S)-butan-2-ylcarbamoyl]phenyl}-1-(pyridazin-3-yl)azetidine-3-carboxamide]	1070 nM
CC1(Cn2cc(-c3ccc(NC(=O)C4CN(c5cccnn5)C4)cn3)cn2)CCNCC1 [Example 926, N-(6-{1-[(4-methylpiperidin-4-yl)methyl]-1H-pyrazol-4-yl}pyridin-3-yl)-1-(pyridazin-3-yl)azetidine-3-carboxamide]	602 nM

Source: US8975398B2, “NAMPT inhibitors” (AbbVie Inc., priority 2012, dated 2015)
